# Results: patent US9345774B2, “Topical composition comprising a film-forming polymer for delivering an active ingredient to skin” (LEO PHARMA A/S, priority 2012, dated 2016)
# Assay: Chemical stability of calcipotriol in contact with container inner coating
# Format: physicochemical
compound,measurement,setting,value
C=C1/C(=C\C=C2/CCC[C@]3(C)[C@@H]([C@H](C)/C=C/[C@@H](O)C4CC4)CC[C@@H]23)C[C@@H](O)C[C@@H]1O [calcipotriol],chemical stability of calcipotriol,epoxyphenol resin inner lacquer,unacceptable chemical degradation
same,chemical stability of calcipotriol,polyimide-polyamide resin as inner coating,satisfactory
